Where two headings read alike, the source gives them in different places.

The target of series [1] is T1, human CYP1A2 (Homo sapiens, UniProt P05177).
T1 sequence (P05177 1-516): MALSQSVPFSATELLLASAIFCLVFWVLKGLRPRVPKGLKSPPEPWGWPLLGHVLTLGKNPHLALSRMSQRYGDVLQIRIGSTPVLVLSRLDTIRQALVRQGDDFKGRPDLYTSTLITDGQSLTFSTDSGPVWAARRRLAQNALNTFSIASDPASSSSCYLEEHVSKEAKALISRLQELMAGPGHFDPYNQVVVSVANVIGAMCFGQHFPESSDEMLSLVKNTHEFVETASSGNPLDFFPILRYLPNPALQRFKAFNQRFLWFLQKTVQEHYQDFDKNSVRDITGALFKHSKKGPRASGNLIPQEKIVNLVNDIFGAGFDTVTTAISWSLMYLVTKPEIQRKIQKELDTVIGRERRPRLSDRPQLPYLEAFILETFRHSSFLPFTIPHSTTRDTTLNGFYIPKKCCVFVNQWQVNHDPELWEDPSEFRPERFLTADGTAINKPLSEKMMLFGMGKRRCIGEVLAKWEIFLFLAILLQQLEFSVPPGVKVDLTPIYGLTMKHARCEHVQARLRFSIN
As to conditions: for CYP1A2 Efficacy (in parenthesis): human.

In series [2] the target is Photinus pyralis (firefly) luciferase (Photinus pyralis, UniProt P08659). Kind of series: biochemical. Format: biochemical.
For series [3], the target named is T2, human CYP2D6 (Homo sapiens, UniProt P10635). Put plainly: biochemical.
Series [4] deals with T3, human CYP2C19 (Homo sapiens, UniProt P33261). Conditions: for CYP2C19 Efficacy (in parenthesis): human.
Series [5] addresses T4, human CYP2C9 (Homo sapiens, UniProt P11712). Put plainly: biochemical.
The target in series [6] is CYP3A4 (Homo sapiens, UniProt P08684).
The target of series [7] is T1, human CYP1A2. Kind of series: biochemical.
Series [8] has as its target T3, human CYP2C19. Kind of series: biochemical.
The target in series [9] is T2, human CYP2D6. Conditions: human.
Series [10] addresses T4, human CYP2C9. As to conditions: human.
Where [11] appears, read: CYP2C9 AC50 (half-maximal activity concentration).
Setting [12] is: CYP2D6 AC50 (half-maximal activity concentration).
The mark [13] stands for this setting: CYP2C9 IC50 (half-maximal inhibitory concentration).
The mark [14] stands for this setting: CYP2C19 IC50 (half-maximal inhibitory concentration).
Setting [15] is: CYP2D6 IC50 (half-maximal inhibitory concentration).
[16] abbreviates: CYP1A2 IC50 (half-maximal inhibitory concentration).

T4 sequence (P11712 whole entry): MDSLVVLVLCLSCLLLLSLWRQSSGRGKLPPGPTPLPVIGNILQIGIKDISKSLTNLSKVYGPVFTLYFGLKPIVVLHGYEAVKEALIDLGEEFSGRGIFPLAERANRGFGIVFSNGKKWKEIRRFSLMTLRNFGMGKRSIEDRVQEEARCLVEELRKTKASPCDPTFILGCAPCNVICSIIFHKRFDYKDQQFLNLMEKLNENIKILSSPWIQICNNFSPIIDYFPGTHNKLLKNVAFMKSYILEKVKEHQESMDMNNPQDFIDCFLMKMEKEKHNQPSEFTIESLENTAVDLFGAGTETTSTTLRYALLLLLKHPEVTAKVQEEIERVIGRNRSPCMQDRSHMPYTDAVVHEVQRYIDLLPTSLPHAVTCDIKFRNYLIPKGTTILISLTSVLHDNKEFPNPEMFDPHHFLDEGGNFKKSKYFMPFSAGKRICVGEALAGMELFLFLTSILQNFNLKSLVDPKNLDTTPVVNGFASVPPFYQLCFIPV
CYP3A4, sequence (P08684 whole entry): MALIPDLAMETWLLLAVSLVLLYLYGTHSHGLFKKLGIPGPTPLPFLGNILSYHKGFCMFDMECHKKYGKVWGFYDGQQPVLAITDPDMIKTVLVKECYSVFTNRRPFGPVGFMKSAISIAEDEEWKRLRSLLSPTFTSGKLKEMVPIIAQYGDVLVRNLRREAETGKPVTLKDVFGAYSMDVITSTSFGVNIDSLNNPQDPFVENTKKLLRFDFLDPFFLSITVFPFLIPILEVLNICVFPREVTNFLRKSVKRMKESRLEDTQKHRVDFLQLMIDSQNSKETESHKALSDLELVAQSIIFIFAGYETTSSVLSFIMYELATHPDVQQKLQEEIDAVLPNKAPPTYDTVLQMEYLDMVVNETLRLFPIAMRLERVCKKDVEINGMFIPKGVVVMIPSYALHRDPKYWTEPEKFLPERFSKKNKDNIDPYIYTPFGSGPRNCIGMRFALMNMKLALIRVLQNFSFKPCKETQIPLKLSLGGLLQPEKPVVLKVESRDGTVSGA
T3 sequence (P33261 whole entry): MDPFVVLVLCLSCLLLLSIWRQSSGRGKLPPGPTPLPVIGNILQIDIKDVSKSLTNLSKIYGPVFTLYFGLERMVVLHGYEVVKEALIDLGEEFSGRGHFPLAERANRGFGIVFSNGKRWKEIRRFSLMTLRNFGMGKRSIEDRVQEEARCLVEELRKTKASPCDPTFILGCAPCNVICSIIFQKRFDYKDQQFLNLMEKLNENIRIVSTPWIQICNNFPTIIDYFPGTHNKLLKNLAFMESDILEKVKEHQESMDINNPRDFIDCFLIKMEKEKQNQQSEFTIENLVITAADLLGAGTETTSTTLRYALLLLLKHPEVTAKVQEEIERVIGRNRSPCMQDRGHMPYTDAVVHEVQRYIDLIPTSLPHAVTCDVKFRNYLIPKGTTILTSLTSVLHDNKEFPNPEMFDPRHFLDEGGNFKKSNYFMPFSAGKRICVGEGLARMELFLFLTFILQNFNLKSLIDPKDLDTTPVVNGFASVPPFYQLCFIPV
T2 sequence (P10635 whole entry): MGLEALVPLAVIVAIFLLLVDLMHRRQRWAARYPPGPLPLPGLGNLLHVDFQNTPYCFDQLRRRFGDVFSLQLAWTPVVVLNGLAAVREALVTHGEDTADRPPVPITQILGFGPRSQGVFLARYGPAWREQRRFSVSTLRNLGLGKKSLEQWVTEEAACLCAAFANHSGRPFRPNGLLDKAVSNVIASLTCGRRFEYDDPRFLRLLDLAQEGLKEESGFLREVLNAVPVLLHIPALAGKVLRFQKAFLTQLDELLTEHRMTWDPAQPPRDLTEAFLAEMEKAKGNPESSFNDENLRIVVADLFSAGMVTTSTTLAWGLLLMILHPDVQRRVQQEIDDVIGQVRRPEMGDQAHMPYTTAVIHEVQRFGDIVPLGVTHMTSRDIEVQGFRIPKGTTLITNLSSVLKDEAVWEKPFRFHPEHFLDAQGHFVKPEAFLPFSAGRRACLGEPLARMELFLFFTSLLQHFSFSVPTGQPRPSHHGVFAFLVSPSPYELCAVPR
Photinus pyralis (firefly) luciferase, sequence (P08659 whole entry): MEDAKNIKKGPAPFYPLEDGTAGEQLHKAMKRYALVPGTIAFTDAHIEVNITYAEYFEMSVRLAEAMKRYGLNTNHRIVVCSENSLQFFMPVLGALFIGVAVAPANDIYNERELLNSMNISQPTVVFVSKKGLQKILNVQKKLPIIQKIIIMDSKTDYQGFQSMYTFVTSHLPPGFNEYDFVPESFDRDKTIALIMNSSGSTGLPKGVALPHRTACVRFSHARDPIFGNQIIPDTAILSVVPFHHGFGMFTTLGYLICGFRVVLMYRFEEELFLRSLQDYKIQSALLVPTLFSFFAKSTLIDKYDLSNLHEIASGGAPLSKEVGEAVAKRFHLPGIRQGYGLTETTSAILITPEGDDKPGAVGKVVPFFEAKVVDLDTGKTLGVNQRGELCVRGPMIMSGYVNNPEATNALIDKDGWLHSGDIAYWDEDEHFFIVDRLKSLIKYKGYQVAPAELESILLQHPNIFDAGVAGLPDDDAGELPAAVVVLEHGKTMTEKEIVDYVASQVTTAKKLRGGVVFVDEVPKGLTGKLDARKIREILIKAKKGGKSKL

In the case of `CC(C)COCC(CN(Cc1ccccc1)c1ccccc1)N1CCCC1` (stereo not drawn) [Bepridil], in series [1], the “CYP1A2 IC50” value was “Inactive”. Moreover, in series [2], the “Luciferase IC50” value is given as “Inactive”. Further, the IC50 in series [3] (CYP2D6 IC50) was 0.06 µM.
As for `NS(=O)(=O)c1ccc(Cl)c(S(N)(=O)=O)c1` [Clofenamide], the “CYP2C19 AC50 (half-maximal activity concentration)” value in [4] was “Inactive”. The AC50 amounted to 19.8 µM in series [5] (setting [11]) and 30.6 µM in [3] (setting [12]). In addition, in series [1], the “CYP1A2 AC50 (half-maximal activity concentration)” value is “Inactive”. The “CYP3A4 AC50 (half-maximal activity concentration)” value (from here on “CYP3A4 AC50”) in [6] is listed as “Inactive”.
Take `N=C(N)N/N=C/c1c(Cl)cccc1Cl` [Guanabenz]: in [4], the “CYP2C19 AC50 (half-maximal activity concentration)” value is “Inactive”. The AC50 in [5] (setting [11]) came to 37.7 µM; in series [3] (setting [12]), 13.8 µM; in [7] (CYP1A2 AC50 (half-maximal activity concentration)) it was 14.4 µM. Moreover, the “CYP3A4 AC50” value in series [6] is recorded as “Inactive”.
Consider `CC(C)=CCOc1c2occc2cc2ccc(=O)oc12` [Imperatorin], for which the “CYP2C19 Efficacy (in parenthesis)” value in series [4] is on record as 4.36 ± 0.0 (-126 ± 1) %. In addition, the IC50 was found to be 0.62 µM in [5] (setting [13]), 4.36 µM in [8] (setting [14]), 4.72 µM in [3] (setting [15]) and 0.42 µM in series [7] (setting [16]). Also, in series [9], the “CYP2D6 Efficacy (in parenthesis)” value is given as 4.72 ± 0.31 (-110 ± 6) %. The “CYP1A2 Efficacy (in parenthesis)” value in series [1] is 0.42 ± 0.17 (-97 ± 12) %. The “CYP2C9 Efficacy (in parenthesis)” value in [10] is recorded as 0.62 ± 0.07 (-96 ± 6) %.
With `CC(C)[N+](C)(CCC(C(N)=O)(c1ccccc1)c1ccccc1)C(C)C` [Isopropamide], the “CYP2C19 Efficacy (in parenthesis)” value in [4] is 35.59 ± 11.39 (-61 ± 21) %. The IC50 in series [5] (setting [13]) was found to be 33.3 µM; in series [8] (setting [14]), 35.6 µM; in series [3] (setting [15]) it was 0.7 µM; in series [7] (setting [16]), 30.4 µM. Also, the “CYP2D6 Efficacy (in parenthesis)” value in series [9] is on record as 0.7 ± 0.32 (-99 ± 8) %. Also, the “CYP1A2 Efficacy (in parenthesis)” value in series [1] is given as 30.41 ± 7.39 (-70 ± 30) %. For the same compound, in series [10], the “CYP2C9 Efficacy (in parenthesis)” value is 33.31 ± 14 (-72 ± 28) %.
Regarding `O=C1N(c2ccccc2)c2ccccc2C1(Cc1ccncc1)Cc1ccncc1` [Linopirdine], in series [4], the “CYP2C19 Efficacy (in parenthesis)” value was 1.71 ± 1.07 (-136 ± 7) %. Further, the IC50 is 3.04 ± 0.74 µM in series [5], 1.71 ± 1.07 µM in series [8], 20.7 ± 9.02 µM in series [3] and 24.1 ± 9.56 µM in [7]. Also, the “CYP2D6 Efficacy (in parenthesis)” value in series [9] is recorded as 20.69 ± 9.02 (-61 ± 27) %. Moreover, the “CYP1A2 Efficacy (in parenthesis)” value in [1] is reported as 24.14 ± 9.56 (-50 ± 8) %. In [10], the “CYP2C9 Efficacy (in parenthesis)” value is given as 3.04 ± 0.74 (-95 ± 5) %.
For `COC(=O)c1cc(Cl)ccc1[N+](=O)[O-]` [Methyl 5-chloro-2-nitrobenzoate], the AC50 in [5] came to 49.3 µM; in series [8], 80 µM; in [3] it was 61.4 µM; in series [7] it was 7.13 µM. Besides, in series [6], the “CYP3A4 AC50” value was “Inactive”.
Consider `CCCN(CCc1cccs1)[C@H]1CCc2c(O)cccc2C1` [Rotigotine], for which, in series [4], the “CYP2C19 Efficacy (in parenthesis)” value was 2.55 ± 0.17 (-115 ± 10) %. Besides, the AC50 in series [5] came to 16.1 ± 1.09 µM; in series [8] it was 2.55 ± 0.17 µM; in series [3] it was 0.4 ± 0.09 µM; in [7], 31 ± 3.57 µM. Moreover, the IC50 was determined as 16.1 ± 1.09 µM in [5], 2.55 ± 0.17 µM in series [8], 0.4 ± 0.09 µM in [3] and 31 ± 3.57 µM in series [7]. The “CYP2D6 Efficacy (in parenthesis)” value in [9] is 0.4 ± 0.09 (-102 ± 0) %. In series [1], the “CYP1A2 Efficacy (in parenthesis)” value is listed as 31.04 ± 3.57 (-46 ± 10) %. The “CYP2C9 Efficacy (in parenthesis)” value in [10] is recorded as 16.12 ± 1.09 (-56 ± 2) %.
On to `Clc1ccc(C(Cn2ccnc2)OCc2ccsc2Cl)c(Cl)c1` (stereo not drawn) [Tioconazole], for which the “CYP2C19 Efficacy (in parenthesis)” value in [4] is 0.25 ± 0.09 (-140 ± 3) %. For the same compound, the IC50 was 0.21 µM in series [5] (setting [13]), 0.25 µM in [8] (setting [14]), 2.79 µM in [3] (setting [15]) and 4.61 µM in series [7] (setting [16]). In addition, in [9], the “CYP2D6 Efficacy (in parenthesis)” value is recorded as 2.79 ± 0.58 (-109 ± 6) %. Moreover, in series [1], the “CYP1A2 Efficacy (in parenthesis)” value is 4.61 ± 0.27 (-94 ± 11) %. The “CYP2C9 Efficacy (in parenthesis)” value in series [10] was 0.21 ± 0.09 (-104 ± 10) %.
In the case of `Clc1ccc(Nc2nnc(Cc3ccncc3)c3ccccc23)cc1` [Vatalanib], the “CYP2C19 Efficacy (in parenthesis)” value in series [4] is recorded as 1.1 ± 0.95 (-157 ± 44) %. For the same compound, the IC50 in series [5] was 0.79 µM; in [8] (CYP2C19 IC50 (half-maximal inhibitory concentration), mean ± standard deviation from three experiments, qHTS), 1.1 ± 0.95 µM; in series [3], 5.98 µM; in series [7] (CYP1A2 IC50 (half-maximal inhibitory concentration), mean ± standard deviation from three experiments, qHTS), 2.03 ± 0.52 µM. Moreover, in [9], the “CYP2D6 Efficacy (in parenthesis)” value is recorded as 5.98 ± 9.87 (-107 ± 3) %. The “CYP1A2 Efficacy (in parenthesis)” value in series [1] is 2.03 ± 0.52 (-97 ± 14) %. The “CYP2C9 Efficacy (in parenthesis)” value in series [10] is reported as 0.79 ± 0.66 (-96 ± 3) %.
`N#C/C(=C1/SC[C@@H](c2ccc(Cl)cc2Cl)S1)n1ccnc1` [luliconazole, reference compound]: the “CYP2C19 Efficacy (in parenthesis)” value in series [4] is recorded as 0.46 ± 0.08 (-137 ± 13) %. The IC50 in series [5] (setting [13]) amounted to 0.52 µM; in [8] (setting [14]), 0.46 µM; in [3] (setting [15]) it was 0.22 µM; in series [7] (setting [16]), 0.33 µM. Moreover, in [9], the “CYP2D6 Efficacy (in parenthesis)” value is 0.22 ± 0.03 (-105 ± 2) %. For the same compound, in series [1], the “CYP1A2 Efficacy (in parenthesis)” value is reported as 0.33 ± 0.09 (-91 ± 7) %. For the same compound, the “CYP2C9 Efficacy (in parenthesis)” value in [10] is reported as 0.52 ± 0.12 (-109 ± 5) %.
